Test results reported in US20090048247A1, “CONDENSED ISOXALINE DERIVATIVES AS INHIBITORS OF PHOSPHODIESTERASE TYPE - IV” (priority 2005, published 2009).

How the values were obtained:
[1] = Solubility under the experimental conditions of the PDE-IV enzyme assay
Method: The PDE-4 enzyme source used was U937 cell cytosolic fraction prepared by sonication. The enzyme reaction was carried out, with the cytosolic fraction as the enzyme source, in the presence of cAMP (1 μM) at 30° C. in the presence or absence of NCE for 45-60 min. An aliquot of this reaction mixture was taken further for the ELISA assay to determine level of cAMP in the sample. The concentration of the cAMP in the sample directly correlates with the degree of PDE-4 enzyme inhibition.

[2] = tested on: TNF-α release, human peripheral blood mononuclear cells; experiment: Cell Based Assay for TNF-α Release (LPS stimulation of Human PBMNC's); settings: PBMC, LPS 1 μg/ml, TNF-α by ELISA, comparator, 4 repetitions
Method: Human whole blood was collected in vacutainer tubes containing heparin or EDTA as an anti coagulant. The blood was diluted (1:1) in sterile phosphate buffered saline and 10 ml. was carefully layered over 5 ml Ficoll Hypaque gradient (density 1.077 g/ml) in a 15 ml conical centrifuge tube. The sample was centrifuged at 3000 rpm for 25 minutes in a swing-out rotor at room temperature. After centrifugation, interface of cells were collected, diluted at least 1:5 with PBS and washed three times by centrifugation at 2500 rpm for 10 minutes at room temperature. The cells were resuspended in serum free RPMI 1640 medium at a concentration of 2 million cells/ml. Alternatively whole blood was used.
LPS stimulation of Human PBMNC's:
PBMN cells (0.1 ml; 2 million/ml) were co-incubated with 20 μl of compound (final DMSO concentration of 0.2%) for 10 min in a flat bottom 96 well microtiter plate. Compounds were dissolved in DMSO initially and diluted in medium for a final concentration of 0.2% DMSO. LPS (1 μg/ml, final concentration) was then added at a volume of 10 μl per well. After 30 min, 20 μl of fetal calf serum (final concentration of 10%) was added to each well. […] The level of TNFα in treated wells was compared with the vehicle treated controls and inhibitory potency of compound was expressed as IC50 values calculated by using Graph pad prism.

In the case of `c1cc(OC2CCCC2)c(OC2CCCCCC2)cc1C1=NOC2(CCOC2)C1` (stereo not drawn) [Compound No. 119, 3-[3-(Cycloheptyloxy)-4-(cyclopentyloxy)phenyl]-1,7-dioxa-2-azaspiro[4.4]non-2-ene], the “solubility under the experimental conditions” value [1] is reported as “insoluble”.

`COc1ccc(C2=NO[C@]3(CCOC3)C2)cc1OC1CCCC1` [Compound No. 124, (S)-3-[3-(cyclopentyloxy)-4-methoxyphenyl]-1,7-dioxa-2-azaspiro[4.4]non-2-ene] showed a melting point of 110.5 °C.

For `COc1ccc(C2CNC(=O)C2)cc1OC1CCCC1` (stereo not drawn) [rolipram], the IC50 [2] was about 0.24 µM.
